According to patent publication US20070021419A1, “2-Aminophenyl-4-phenylpyrimidines as kinase inhibitors” (Cyclacel Limited, priority 2003, published 2007):

Experiments:
A549 = test: 72-h MTT cytotoxicity assay, A549; assay type: cell-based; details: Homo sapiens, read-out: 72-h MTT IC50 A549, A549 cell line
Procedure: (§1) The compounds from the examples above were subjected to a standard cellular proliferation assay using human tumour cell lines obtained from the ATCC (American Type Culture Collection, 10801 University Boulevard, Manessas, Va. 20110-2209, USA). Standard 72-h MTT (thiazolyl blue; 3-[4,5-dimethylthiazol-2-yl]-2,5-diphenyltetrazolium bromide) assays were performed. In short: cells were seeded into 96-well plates according to doubling time and incubated overnight at 37° C. Test compounds were made up in DMSO and a 1/3 dilution series prepared in 100 μL cell media, added to cells (in triplicates) and incubated for 72 ho at 37° C. MTT was made up as a stock of 5 mg/mL in cell media and filter-sterilised. Media was removed from cells followed by a wash with 200 μL PBS. MTT solution was then added at 20 μL per well and incubated in the dark at 37° C. for 4 h. MTT solution was removed and cells again washed with 200 μL PBS. MTT dye was solubilised with 200 μL per well of DMSO with agitation.

HT29 = test: 72-h MTT cytotoxicity assay, HT29; assay type: cell-based; details: Homo sapiens, HT-29, read-out: 72-h MTT IC50 HT29, HT29 cell line
Procedure: as §1

Saos-2 = test: 72-h MTT cytotoxicity assay, Saos-2; assay type: cell-based; details: Homo sapiens, read-out: 72-h MTT IC50 Saos-2, Saos-2 cell line
Procedure: as §1

[1] = tested on: transformed human cell lines (A549, HT29, Saos-2); test: 72-h MTT cytotoxicity assay, average of cell lines; assay type: cell-based; details: read-out: 72-h MTT IC50 Average, average of A549, HT29, Saos-2
Procedure: as §1

CDK2/cyclin E = CDK2/cyclin E (Homo sapiens, UniProt P24941); test: Kinase assay, radioactive phosphate incorporation, CDK2/cyclin E; assay type: biochemical; details: 100 μM ATP, 30° C.; read-out: Kinase inhibition IC50 CDK2/cyclin E
Procedure: (§2) The compounds from the examples above were investigated for their ability to inhibit the enzymatic activity of various protein kinases. This was achieved by measurement of incorporation of radioactive phosphate from ATP into appropriate polypeptide substrates. Recombinant protein kinases and kinase complexes were produced or obtained commercially. Assays were performed using 96-well plates and appropriate assay buffers (typically 25 mM β-glycerophosphate, 20 mM MOPS, 5 MM EGTA, 1 mM DTT, 1 mM Na3VO3, pH 7.4), into which were added 2-4 μg of active enzyme with appropriate substrates. The reactions were initiated by addition of Mg/ATP mix (15 mM MgCl2+100 μM ATP with 30-50 kBq per well of [γ-^32P]-ATP) and mixtures incubated as required at 30° C. Reactions were stopped on ice, followed by filtration through p81 filterplates or GF/C filterplates (Whatman Polyfiltronics, Kent, UK). After washing 3 times with 75 mM aq orthophosphoric acid, plates were dried, scintillant added and incorporated radioactivity measured in a scintillation counter (TopCount, Packard Instruments, Pangbourne, Berks, UK). Compounds for kinase assay were made up as 10 mM stocks in DMSO and diluted into 10% DMSO in assay buffer.

CDK7/cyclin H = CDK7/cyclin H (Homo sapiens, UniProt P50613); test: Kinase assay, radioactive phosphate incorporation, CDK7/cyclin H; assay type: biochemical; details: 100 μM ATP, 30° C.; read-out: Kinase inhibition IC50 CDK7/cyclin H
Chain of CDK7/cyclin H (P50613 whole entry, species assumed): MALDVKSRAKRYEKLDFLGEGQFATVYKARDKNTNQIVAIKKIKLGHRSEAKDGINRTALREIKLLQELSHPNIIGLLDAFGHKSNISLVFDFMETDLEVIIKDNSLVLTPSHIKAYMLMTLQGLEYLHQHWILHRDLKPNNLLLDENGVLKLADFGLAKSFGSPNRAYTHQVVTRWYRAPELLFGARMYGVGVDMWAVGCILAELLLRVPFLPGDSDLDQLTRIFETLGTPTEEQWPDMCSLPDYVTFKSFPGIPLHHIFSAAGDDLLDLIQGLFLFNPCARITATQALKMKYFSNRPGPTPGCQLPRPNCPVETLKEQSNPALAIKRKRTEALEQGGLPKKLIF
Chain of CDK7/cyclin H (P51946 whole entry partner, species assumed): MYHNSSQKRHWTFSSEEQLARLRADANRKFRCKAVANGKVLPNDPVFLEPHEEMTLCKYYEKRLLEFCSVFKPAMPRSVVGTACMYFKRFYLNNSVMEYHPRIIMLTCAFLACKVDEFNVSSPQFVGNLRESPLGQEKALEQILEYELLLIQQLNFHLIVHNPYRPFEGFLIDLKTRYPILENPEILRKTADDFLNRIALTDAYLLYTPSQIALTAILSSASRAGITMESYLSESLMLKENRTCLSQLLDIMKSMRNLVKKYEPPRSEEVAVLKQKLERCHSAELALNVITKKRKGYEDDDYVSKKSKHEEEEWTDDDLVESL
Procedure: as §2

CDK9/cyclin T1 = CDK9/cyclin T1 (Homo sapiens, UniProt P50750); test: Kinase assay, radioactive phosphate incorporation, CDK9/cyclin T1; assay type: biochemical; details: 100 μM ATP, 30° C.; read-out: Kinase inhibition IC50 CDK9/cyclin T1
Chain of CDK9/cyclin T1 (P50750 whole entry, species assumed): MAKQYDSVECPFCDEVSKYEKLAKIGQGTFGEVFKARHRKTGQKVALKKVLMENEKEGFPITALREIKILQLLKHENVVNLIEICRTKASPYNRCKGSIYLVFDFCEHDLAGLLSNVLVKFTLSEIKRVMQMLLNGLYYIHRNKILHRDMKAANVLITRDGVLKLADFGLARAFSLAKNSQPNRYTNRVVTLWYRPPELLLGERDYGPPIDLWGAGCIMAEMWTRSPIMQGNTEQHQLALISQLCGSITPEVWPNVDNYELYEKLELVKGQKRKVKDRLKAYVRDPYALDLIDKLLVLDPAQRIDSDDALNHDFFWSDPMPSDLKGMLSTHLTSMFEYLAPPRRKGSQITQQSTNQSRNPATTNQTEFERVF
Chain of CDK9/cyclin T1 (O60563 whole entry partner, species assumed): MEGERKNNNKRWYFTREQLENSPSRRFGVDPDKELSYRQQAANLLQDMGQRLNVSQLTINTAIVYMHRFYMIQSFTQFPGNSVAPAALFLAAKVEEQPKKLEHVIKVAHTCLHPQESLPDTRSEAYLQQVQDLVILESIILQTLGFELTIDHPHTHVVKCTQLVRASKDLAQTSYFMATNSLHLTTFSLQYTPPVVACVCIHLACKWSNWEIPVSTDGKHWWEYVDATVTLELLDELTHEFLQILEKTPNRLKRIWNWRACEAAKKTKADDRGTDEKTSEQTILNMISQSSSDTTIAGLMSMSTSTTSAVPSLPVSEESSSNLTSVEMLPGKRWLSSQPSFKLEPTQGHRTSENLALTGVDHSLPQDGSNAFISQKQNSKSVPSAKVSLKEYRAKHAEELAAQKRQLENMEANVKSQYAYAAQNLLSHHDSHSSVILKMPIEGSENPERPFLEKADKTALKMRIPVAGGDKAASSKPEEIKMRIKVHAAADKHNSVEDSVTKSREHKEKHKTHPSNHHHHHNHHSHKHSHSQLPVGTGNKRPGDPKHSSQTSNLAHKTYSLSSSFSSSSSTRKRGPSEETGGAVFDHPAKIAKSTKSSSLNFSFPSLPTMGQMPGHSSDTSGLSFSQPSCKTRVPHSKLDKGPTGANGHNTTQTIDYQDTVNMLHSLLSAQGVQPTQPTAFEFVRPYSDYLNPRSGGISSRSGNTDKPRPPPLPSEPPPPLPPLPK
Procedure: as §2

GSK3β = GSK3β (Homo sapiens, UniProt P49841); test: Kinase assay, radioactive phosphate incorporation, GSK3β; assay type: biochemical; details: 100 μM ATP, 30° C.; read-out: Kinase inhibition IC50 GSK3β
Chain of GSK3β (P49841 whole entry, species assumed): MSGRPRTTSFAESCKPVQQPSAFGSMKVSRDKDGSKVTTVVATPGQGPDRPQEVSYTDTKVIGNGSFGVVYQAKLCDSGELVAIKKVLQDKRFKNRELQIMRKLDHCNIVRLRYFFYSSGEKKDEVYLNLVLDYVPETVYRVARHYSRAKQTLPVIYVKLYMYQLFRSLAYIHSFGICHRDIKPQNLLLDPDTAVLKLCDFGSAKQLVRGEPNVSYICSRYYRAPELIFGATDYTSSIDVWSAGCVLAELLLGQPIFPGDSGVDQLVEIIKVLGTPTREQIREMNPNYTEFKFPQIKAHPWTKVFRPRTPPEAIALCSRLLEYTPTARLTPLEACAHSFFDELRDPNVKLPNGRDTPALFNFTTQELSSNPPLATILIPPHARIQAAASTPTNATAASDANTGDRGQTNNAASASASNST
Procedure: as §2

| SMILES | IC50 (CDK2/cyclin E) [µM] | IC50 (CDK7/cyclin H) [µM] | IC50 (CDK9/cyclin T1) [µM] | IC50 (GSK3β) [µM] | IC50 (A549) [µM] | IC50 (HT29) [µM] | IC50 (Saos-2) [µM] | IC50 [1] [µM] |
| --- | --- | --- | --- | --- | --- | --- | --- | --- |
| Oc1cccc(Nc2nccc(-c3ccc(Cl)c(Cl)c3)n2)c1 [Compound 22, 3-[4-(3,4-Dichloro-phenyl)-pyrimidin-2-ylamino]-phenol] |  |  |  |  | 43.5 | 85.2 | 100 | 76.2 ± 29.3 |
| CC(=O)Nc1cccc(-c2ccnc(Nc3cccc([N+](=O)[O-])c3)n2)c1 [Compound 69, N-{3-[2-(3-Nitro-phenylamino)-pyrimidin-4-yl]-phenyl}-acetamide] | 0.31 | 0.55 | 0.04 | 0.14 |  |  |  |  |
| Oc1cccc(Nc2nccc(-c3cccc(O)c3)n2)c1 [Compound 56] | 0.24 | 2.1 | 0.07 | 0.07 |  |  |  |  |
| COc1ccc(Nc2nccc(-c3cccc(O)c3)n2)cn1 [Compound 74, 3-[2-(6-Methoxy-pyridin-3-ylamino)-pyrimidin-4-yl]-phenol] |  | 3.8 |  | 0.05 |  |  |  |  |
| COc1cc(Nc2nccc(-c3cccc(NC(C)=O)c3)n2)cc(OC)c1 [Compound 68, N-{3-[2-(3,5-Dimethoxy-phenylamino)-pyrimidin-4-yl]-phenyl}-acetamide] | 2.7 |  |  |  |  |  |  |  |
| O=[N+]([O-])c1cccc(Nc2nccc(-c3ccc(Cl)c(Cl)c3)n2)c1 [Compound 31, [4-(3,4-Dichloro-phenyl)-pyrimidin-2-yl]-(3-nitro-phenyl)-amine] |  |  |  | 4.5 |  |  |  |  |
| Cc1ccc(C)c(-c2ccnc(Nc3cccc(O)c3)n2)c1 [Compound 62, 3-[4-(2,5-Dimethyl-phenyl)-pyrimidin-2-ylamino]-phenol] | 1.8 |  |  |  |  |  |  |  |
| Oc1cccc(-c2ccnc(Nc3cccc(F)c3)n2)c1 [Compound 57, 3-[2-(3-Fluoro-phenylamino)-pyrimidin-4-yl]-phenol] | 0.21 | 1.3 | 0.18 | 0.054 |  |  |  |  |
| CC(=O)N(Cc1cccc(-c2ccnc(Nc3cccc([N+](=O)[O-])c3)n2)c1)C(C)C [Compound 78, N-Isopropyl-N-{3-[2-(3-nitro-phenylamino)-pyrimidin-4-yl]-benzyl}-acetamide] |  |  |  |  | 3.7 | 0.96 | 5.4 | 3.4 ± 2.2 |
| CCN(C(C)=O)c1cccc(-c2ccnc(Nc3ccc([N+](=O)[O-])cc3)n2)c1 [Compound 24, N-Ethyl-N-{3-[2-(4-nitro-phenylamino)-pyrimidin-4-yl]-phenyl}-acetamide] |  |  |  |  | 100 | 7.8 | 80.4 | 62.7 ± 48.6 |
| OCC1CCCCN1Cc1cccc(-c2ccnc(Nc3ccc(O)cc3)n2)c1 (centres unmarked) [Compound 106, 4-{4-[3-(2-Hydroxymethyl-piperidin-1-ylmethyl)-phenyl]-pyrimidin-2-ylamino}-phenol] |  | 1.7 | 0.19 |  |  |  |  |  |
| O=[N+]([O-])c1cccc(Nc2nccc(-c3cccc(C(F)(F)F)c3)n2)c1 [Compound 97, (3-Nitro-phenyl)-[4-(3-trifluoromethyl-phenyl)-pyrimidin-2-yl]-amine] |  |  | 0.16 | 0.27 |  |  |  |  |
| COc1ccc(-c2ccnc(Nc3cccc(F)c3)n2)cc1 [Compound 119, (3-Fluoro-phenyl)-[4-(4-methoxy-phenyl)-pyrimidin-2-yl]-amine] |  |  | 0.04 | 0.14 |  |  |  |  |
| CN(Cc1cccc(-c2ccnc(Nc3cccc([N+](=O)[O-])c3)n2)c1)S(=O)(=O)c1cccc([N+](=O)[O-])c1 [Compound 85, N-Methyl-3-nitro-N-{3-[2-(3-nitro-phenylamino)-pyrimidin-4-yl]-benzyl}-benzenesulfonamide] |  |  | 0.4 |  | 76.9 | 10.4 | 44.6 | 44 ± 33.3 |
| CC(=O)Nc1cccc(-c2ccnc(Nc3ccccc3)n2)c1 [Compound 66, N-[3-(2-Phenylamino-pyrimidin-4-yl)-phenyl]-acetamide] | 2.8 |  |  | 0.63 |  |  |  |  |
| O=[N+]([O-])c1cccc(Nc2nccc(-c3cc(F)ccc3F)n2)c1 [Compound 123, [4-(2,5-Difluoro-phenyl)-pyrimidin-2-yl]-(3-nitro-phenyl)-amine] |  |  | 0.17 |  |  |  |  |  |
| COc1ccc(Nc2nccc(-c3ccc(Cl)c(Cl)c3)n2)cn1 [Compound 49, [4-(3,4-Dichloro-phenyl)-pyrimidin-2-yl]-(6-methoxy-pyridin-3-yl)-amine] |  |  |  | 5.2 |  |  |  |  |

Second part, led by results:

| IC50 (CDK2/cyclin E) [µM] | IC50 (CDK7/cyclin H) [µM] | IC50 (CDK9/cyclin T1) [µM] | IC50 (GSK3β) [µM] | SMILES | IC50 (A549) [µM] | IC50 (HT29) [µM] | IC50 (Saos-2) [µM] | IC50 [1] [µM] |
| --- | --- | --- | --- | --- | --- | --- | --- | --- |
| 1.6 | 3.8 | 0.26 | 0.51 | CC(=O)Nc1cccc(-c2ccnc(Nc3cccc(CO)c3)n2)c1 [Compound 60, N-{3-[2-(3-Hydroxymethyl-phenylamino)-pyrimidin-4-yl]-phenyl}-acetamide] |  |  |  |  |
| 18 |  |  |  | c1ccc(Nc2nccc(-c3ccccc3)n2)cc1 [Compound 37, Phenyl-(4-phenyl-pyrimidin-2-yl)-amine] | 22 | 15.2 | 60.7 | 32.6 ± 24.5 |
| 0.42 | 5.5 | 0.92 | 0.043 | O=[N+]([O-])c1ccc(Nc2nccc(-c3cccc(Cn4cncn4)c3)n2)cc1 [Compound 41, (4-Nitro-phenyl)-[4-(3-[1,2,4]triazol-1-ylmethyl-phenyl)-pyrimidin-2-yl]-amine] |  |  |  |  |
|  |  | 0.003 | 0.07 | COc1cccc(-c2ccnc(Nc3cccc([N+](=O)[O-])c3)n2)c1 [Compound 87, [4-(3-Methoxy-phenyl)-pyrimidin-2-yl]-(3-nitro-phenyl)-amine] |  |  |  |  |
|  |  | 0.018 |  | COCCOc1ccc(Nc2nccc(-c3cccc(N)c3)n2)cc1 [Compound 3, [4-(3-Amino-phenyl)-pyrimidin-2-yl]-[4-(2-methoxy-ethoxy)-phenyl]-amine] | 1.8 | 3.6 | 5.2 | 3.5 ± 1.7 |
| 1.3 |  |  | 0.57 | Cc1ccc(C)c(-c2ccnc(Nc3cccc([N+](=O)[O-])c3)n2)c1 [Compound 61, [4-(2,5-Dimethyl-phenyl)-pyrimidin-2-yl]-(3-nitro-phenyl)-amine] |  |  |  |  |
| 0.7 |  |  | 0.06 | O=[N+]([O-])c1cccc(-c2ccnc(Nc3cccc(O)c3)n2)c1 [Compound 64, 3-[4-(3-Nitro-phenyl)-pyrimidin-2-ylamino]-phenol] |  |  |  |  |
| 0.78 | 4.4 | 0.16 | 0.15 | CC(=O)Nc1cccc(-c2ccnc(Nc3cccc(O)c3)n2)c1 [Compound 67, N-{3-[2-(3-Hydroxy-phenylamino)-pyrimidin-4-yl]-phenyl}-acetamide] |  |  |  |  |
| 0.24 |  |  |  | CC(=O)N(C)c1cccc(-c2ccnc(Nc3ccc(O)cc3)n2)c1 [Compound 12, N-{3-[2-(4-Hydroxy-phenylamino)-pyrimidin-4-yl]-phenyl}-N-methyl-acetamide] |  |  |  |  |
|  |  | 16 |  | COc1ccc(OC)c(-c2ccnc(Nc3ccc(OC)nc3)n2)c1 [Compound 52, [4-(2,5-Dimethoxy-phenyl)-pyrimidin-2-yl]-(6-methoxy-pyridin-3-yl)-amine] | 20.5 | 10.8 | 14.9 | 15.4 ± 4.9 |
|  | 1.4 | 0.65 |  | OCc1cc(CO)cc(Nc2nccc(-c3cccc(CN4CCCCC4CO)c3)n2)c1 (centres unmarked) [Compound 107, (1-{3-[2-(3,5-Bis-hydroxymethyl-phenylamino)-pyrimidin-4-yl]-benzyl}-piperidin-2-yl)-methanol] |  |  |  |  |
|  | 2.5 |  | 0.055 | Nc1cccc(-c2ccnc(Nc3cccc([N+](=O)[O-])c3)n2)c1 [Compound 19, [4-(3-Amino-phenyl)-pyrimidin-2-yl]-(3-nitro-phenyl)-amine] |  |  |  |  |
| 0.04 | 0.31 | 0.03 | 0.003 | O=[N+]([O-])c1cccc(Nc2nccc(-c3cccc(O)c3)n2)c1 [Compound 55, 3-[2-(3-Nitro-phenylamino)-pyrimidin-4-yl]-phenol] |  |  |  |  |
